From patent US10670605B2, “Cysteine reactive probes and uses thereof” (The Scripps Research Institute, priority 2015, dated 2020)
Each block holds one compound with its values, some of them ahead of it.

How the values were obtained:
[1] = biological target: T1, RELB C109 (Q01201) (Homo sapiens, UniProt Q01201); assay: Competitive isoTOP-ABPP, cell lysates; assay type: binding; details: for R value (DMSO/fragment): 500 μM
T1 sequence (Q01201 1-579): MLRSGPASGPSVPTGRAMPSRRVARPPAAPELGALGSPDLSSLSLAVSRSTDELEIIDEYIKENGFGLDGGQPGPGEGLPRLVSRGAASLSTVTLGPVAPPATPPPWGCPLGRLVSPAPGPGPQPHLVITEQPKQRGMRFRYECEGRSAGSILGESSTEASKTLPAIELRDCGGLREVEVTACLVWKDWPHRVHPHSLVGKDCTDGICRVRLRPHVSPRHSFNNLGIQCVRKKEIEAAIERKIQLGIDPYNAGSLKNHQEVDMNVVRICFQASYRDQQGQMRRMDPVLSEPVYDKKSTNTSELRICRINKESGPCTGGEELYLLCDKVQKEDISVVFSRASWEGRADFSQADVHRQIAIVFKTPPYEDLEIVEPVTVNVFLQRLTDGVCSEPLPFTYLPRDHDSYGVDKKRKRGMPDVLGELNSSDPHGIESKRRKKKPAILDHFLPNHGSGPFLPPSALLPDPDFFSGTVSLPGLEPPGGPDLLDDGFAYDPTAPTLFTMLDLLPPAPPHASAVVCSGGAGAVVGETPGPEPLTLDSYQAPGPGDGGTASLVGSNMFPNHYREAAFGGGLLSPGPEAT

[2] = biological target: T2, VCPIP1 C219 (Q96JH7) (Homo sapiens, UniProt Q96JH7); assay: Competitive isoTOP-ABPP, cell lysates; assay type: binding; details: for isoTOP-ABPP reactivity profile ratio, Q96JH7_C219 / isoTOP-ABPP reactivity ratio, Q96JH7_C219: 500 μm, in-vitro_ramos; for R value (DMSO/fragment): 500 μM
T2 sequence (Q96JH7 1-1222): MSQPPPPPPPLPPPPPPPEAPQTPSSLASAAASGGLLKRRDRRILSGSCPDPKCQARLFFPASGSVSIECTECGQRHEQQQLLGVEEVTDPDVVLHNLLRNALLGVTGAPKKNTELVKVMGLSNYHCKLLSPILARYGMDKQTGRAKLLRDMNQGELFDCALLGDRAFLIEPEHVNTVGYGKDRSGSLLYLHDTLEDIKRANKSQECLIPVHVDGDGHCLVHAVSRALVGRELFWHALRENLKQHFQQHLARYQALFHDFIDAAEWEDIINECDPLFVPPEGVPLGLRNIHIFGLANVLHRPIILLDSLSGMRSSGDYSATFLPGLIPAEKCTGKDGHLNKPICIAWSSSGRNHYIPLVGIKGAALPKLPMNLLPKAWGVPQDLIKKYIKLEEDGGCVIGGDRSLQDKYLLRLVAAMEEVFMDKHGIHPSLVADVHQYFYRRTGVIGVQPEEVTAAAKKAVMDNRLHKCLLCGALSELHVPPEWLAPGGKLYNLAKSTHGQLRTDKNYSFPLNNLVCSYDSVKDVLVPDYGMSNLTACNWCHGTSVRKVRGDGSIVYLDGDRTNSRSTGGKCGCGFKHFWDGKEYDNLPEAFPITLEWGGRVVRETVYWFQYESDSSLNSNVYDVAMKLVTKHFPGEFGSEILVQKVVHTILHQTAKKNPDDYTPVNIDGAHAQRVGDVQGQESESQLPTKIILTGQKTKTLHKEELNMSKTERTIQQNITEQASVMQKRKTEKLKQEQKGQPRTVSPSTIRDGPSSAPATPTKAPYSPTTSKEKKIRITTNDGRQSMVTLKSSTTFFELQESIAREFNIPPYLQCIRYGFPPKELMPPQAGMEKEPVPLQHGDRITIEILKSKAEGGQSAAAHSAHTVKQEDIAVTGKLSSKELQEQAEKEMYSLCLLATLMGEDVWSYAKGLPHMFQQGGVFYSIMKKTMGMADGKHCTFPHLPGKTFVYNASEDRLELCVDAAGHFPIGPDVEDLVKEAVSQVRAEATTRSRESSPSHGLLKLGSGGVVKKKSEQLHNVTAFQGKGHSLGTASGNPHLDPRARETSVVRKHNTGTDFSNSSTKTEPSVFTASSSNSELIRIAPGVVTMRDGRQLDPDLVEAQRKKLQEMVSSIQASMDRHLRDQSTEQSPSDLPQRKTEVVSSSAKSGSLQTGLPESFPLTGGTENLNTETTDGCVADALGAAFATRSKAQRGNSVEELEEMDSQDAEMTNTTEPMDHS

SMILES: COc1ccccc1OCCNC(=O)CCl [compound 28]
- isoTOP-ABPP ratio (reactivity profile), Q01201_C109 ([1]; 500 μm in-vitro ramos): 1.1

SMILES: O=C(CCl)N1CCC(C(O)(c2ccccc2)c2ccccc2)CC1 [compound 20]
- isoTOP-ABPP ratio (reactivity profile), Q96JH7_C219 ([2]; 500 μm in-vitro ramos): 1.2

SMILES: CC(C)(C)c1cc(NC(=O)CCl)on1 [compound 32]
- isoTOP-ABPP reactivity ratio, Q01201_C109 ([1]; 500 μm, in-vitro_ramos): 20.0

SMILES: O=C(CCl)Nc1cccc2ncccc12 [compound 51]
- isoTOP-ABPP reactivity profile ratio, Q01201_C109 ([1]; 500 μm, in-vitro_ramos): 1.6
- isoTOP-ABPP reactivity profile ratio, Q96JH7_C219 [2]: 2.3

SMILES: C=CC(=O)Nc1cc(F)c(N2CCN(C(=O)OC(C)(C)C)CC2)c(F)c1 [compound 38]
- isoTOP-ABPP reactivity ratio, Q96JH7_C219 [2]: 1.8

SMILES: C=CC(=O)N(Cc1cccnc1)c1ccc(Oc2ccccc2)c(C(F)(F)F)c1 [compound 15]
- isoTOP-ABPP ratio (reactivity profile), Q96JH7_C219 ([2]; 500 μm in-vitro ramos): 1.3

SMILES: COc1ccc2c(c1)CCCN2C(=O)CCl [compound 2]
- R value (DMSO/fragment) ([1]; in vitro, MDA-MB-231): 20.0
- R value (DMSO/fragment) ([1]; invitro, ramos): 20.0
- R value (DMSO/fragment) ([2]; invitro, ramos): 1.1

SMILES: N#C/C(=C\c1cc(C(F)(F)F)cc(C(F)(F)F)c1)C(N)=O [compound 23]
- isoTOP-ABPP ratio (reactivity profile), Q01201_C109 ([1]; 500 μm in-vitro ramos): 1.3

SMILES: CC(C)CCOCCNC(=O)CCl [compound 27]
- isoTOP-ABPP ratio (reactivity profile), Q01201_C109 ([1]; 500 μm in-vitro ramos_231): 0.8
- isoTOP-ABPP ratio (reactivity profile), Q96JH7_C219 ([2]; 500 μm in-vitro ramos_231): 1.7

SMILES: C=CC(=O)Nc1cc(C)c(Br)cc1C [compound 40]
- isoTOP-ABPP reactivity ratio, Q96JH7_C219 [2]: 1.9

Second part, the compound after the results:

- isoTOP-ABPP ratio (reactivity profile), Q01201_C109 ([1]; 500 μm in-vitro ramos): 1.5
- isoTOP-ABPP ratio (reactivity profile), Q96JH7_C219 ([2]; 500 μm in-vitro ramos): 1.2
SMILES: CC(Br)C(=O)Nc1cc(C(F)(F)F)cc(C(F)(F)F)c1 (centres unmarked) [compound 24]

- isoTOP-ABPP reactivity profile ratio, Q96JH7_C219 [2]: 1.6
SMILES: O=C(CCl)Nc1ccc(-c2ccccc2)cc1 [compound 52]

- R value (DMSO/fragment) ([2]; in vitro, MDA-MB-231): 20.0
- R value (DMSO/fragment) ([2]; invitro, ramos): 15.1
SMILES: O=C(CCl)Nc1cc(C(F)(F)F)cc(C(F)(F)F)c1 [compound 3]

- isoTOP-ABPP reactivity ratio, Q96JH7_C219 [2]: 1.0
SMILES: C=CC(=O)N(Cc1cccnc1)c1cc(C(F)(F)F)cc(C(F)(F)F)c1 [compound 31]
